Measured values taken from patent publication US6643591B1, “Use of computational and experimental data to model organic compound reactivity in cytochrome P450 mediated reactions and to optimize the design of pharmaceuticals” (University of Pittsburgh, priority 1998, dated 2003).

What was measured:
[1] = biological target: T1, P450cam (Pseudomonas putida, UniProt P00183); experiment: Intramolecular isotope effects with purified P450cam; assay type: in vitro ADME, bacterial; settings: benzylic hydroxylation, -CH2D (d1) substrate
T1 construct: made in house
Description: For the intramolecular isotope effect experiments herein, a substrate is chosen that contains at least two symmetrical sites, with at least one site, but not all, isotopically labeled. A single concentration of substrate is incubated with enzyme, and the ratio of labeled to unlabeled compound in the isotopic mixture of products (or the corresponding rates of formation of products) are used to calculate a KIE.
Construction of expression plasmids for P450cam, Pd, and PdR as well as protein expression and purification have been described previously (Shimoji et al. (1998) Biochemistry 37, 8848-52).
Enzyme incubations with monodeuterated toluenes and p-xylene-α-^2H1-α′-^2H1 were performed in triplicate at a single substrate concentration of 0.25 mM. […] The kinetic parameters for metabolism of the substituted toluenes were determined by GC-MS analysis of the M-(dimethylsilyl) derivative of the product benzyl alcohols (see below).

[2] = biological target: T2, CYP2B6 (Homo sapiens, UniProt P20813); experiment: Regioselectivity and inter-/intramolecular KIE for 4-methylanisole (Table 15); assay type: in vitro ADME
T2 sequence (P20813 1-491): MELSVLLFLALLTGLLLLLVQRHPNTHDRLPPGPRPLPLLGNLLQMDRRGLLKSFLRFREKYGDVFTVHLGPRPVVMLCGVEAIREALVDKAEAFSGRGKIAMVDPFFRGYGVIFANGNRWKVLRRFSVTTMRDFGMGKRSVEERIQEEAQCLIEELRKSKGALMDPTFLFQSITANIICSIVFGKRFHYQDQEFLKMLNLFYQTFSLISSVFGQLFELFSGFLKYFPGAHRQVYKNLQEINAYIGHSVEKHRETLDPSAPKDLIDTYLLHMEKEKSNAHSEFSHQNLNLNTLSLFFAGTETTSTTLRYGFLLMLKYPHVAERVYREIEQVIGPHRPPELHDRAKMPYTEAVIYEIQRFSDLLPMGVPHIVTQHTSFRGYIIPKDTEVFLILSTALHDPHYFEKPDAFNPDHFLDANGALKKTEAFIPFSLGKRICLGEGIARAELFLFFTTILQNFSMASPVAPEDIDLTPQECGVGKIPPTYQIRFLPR

[3] = system: various CYP enzymes; settings: mean over seven enzymes
[4] = system: CYP; experiment: Experimental product ratios for aromatic oxidation; settings: Arom/benz
Description: These equations may be solved with the data in Table 4, which provides experimental data for aromatic oxidation reactions with a number of substrates.
Experimental metabolite ratios may also be used to parameterize the aromatic oxidation reaction in a theoretical model for CYP reactions. As with hydrogen atom abstraction discussed in the previous Examples, experimental ratios of aromatic oxidation to an alternate position may be determined using various CYP enzymes. These substrates were chosen based on their small size, the presence of an alternate position for metabolism, and their hydrophobicity.
In order for the substrates to be useful, the average of the rotation rates in the active sites should be rapid. […] Several human expressed CYP enzymes were used in these studies, including CYP1A1, 1A2, 2A6, 2B6, 2C8, 2C9, 2D6, 2E1, 3A4, and 3A5. The use of multiple enzymes insures that a reasonable average of any orientation preferences within the active site (see FIG. 1).

[5] = biological target: T3, CYP2B1 (Rattus norvegicus, UniProt P00176); experiment: in vitro
T3 sequence (P00176 1-491): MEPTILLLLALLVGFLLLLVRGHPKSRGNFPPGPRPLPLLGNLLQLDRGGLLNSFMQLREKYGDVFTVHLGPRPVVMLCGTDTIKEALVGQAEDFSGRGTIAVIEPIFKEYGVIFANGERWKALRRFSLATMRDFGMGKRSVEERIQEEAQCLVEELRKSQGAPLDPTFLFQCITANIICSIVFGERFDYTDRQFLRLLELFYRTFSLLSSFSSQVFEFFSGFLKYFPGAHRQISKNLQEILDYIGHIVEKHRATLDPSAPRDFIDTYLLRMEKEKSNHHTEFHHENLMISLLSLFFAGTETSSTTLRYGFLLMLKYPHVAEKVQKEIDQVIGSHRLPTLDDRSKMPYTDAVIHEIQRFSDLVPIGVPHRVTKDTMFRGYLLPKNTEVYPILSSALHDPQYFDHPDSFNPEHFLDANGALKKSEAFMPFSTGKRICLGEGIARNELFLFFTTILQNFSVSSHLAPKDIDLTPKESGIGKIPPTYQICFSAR

[6] = biological target: T2, CYP2B6; experiment: in vitro
[7] = biological target: T4, CYP2C8 (Homo sapiens, UniProt P10632); experiment: in vitro; settings: pH 7.4
T4 sequence (P10632 1-490): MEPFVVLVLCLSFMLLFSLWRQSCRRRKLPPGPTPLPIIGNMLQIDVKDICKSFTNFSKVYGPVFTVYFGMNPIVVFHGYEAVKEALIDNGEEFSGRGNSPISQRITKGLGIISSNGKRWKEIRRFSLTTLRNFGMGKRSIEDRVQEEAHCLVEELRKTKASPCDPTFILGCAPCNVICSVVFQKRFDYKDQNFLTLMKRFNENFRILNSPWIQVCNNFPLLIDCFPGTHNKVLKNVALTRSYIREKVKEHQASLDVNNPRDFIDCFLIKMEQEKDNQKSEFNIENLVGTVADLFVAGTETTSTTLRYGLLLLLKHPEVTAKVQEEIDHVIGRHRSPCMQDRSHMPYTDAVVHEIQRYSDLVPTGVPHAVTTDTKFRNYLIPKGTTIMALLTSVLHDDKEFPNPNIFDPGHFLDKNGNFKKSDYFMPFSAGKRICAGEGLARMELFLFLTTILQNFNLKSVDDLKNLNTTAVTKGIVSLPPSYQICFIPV

[8] = biological target: CYP2C9 (Homo sapiens, UniProt P11712); experiment: in vitro
[9] = biological target: CYP2E1 (Homo sapiens, UniProt P05181); experiment: in vitro
[10] = biological target: CYP4B1 (Oryctolagus cuniculus, UniProt P15128); experiment: in vitro
[11] = system: CYP2B6, CYP2C9, CYP4B1; experiment: in vitro; settings: pH 7.4, Regioselectivity BzH:Arom, range, isoforms 2B6, 2C9 and 4B1
[12] = pH 7.4, Regioselectivity BzH:Arom
[13] = pH 7.4, Regioselectivity BzH:ODAlk

Sequence of CYP4B1 (P15128 whole entry, canonical isoform): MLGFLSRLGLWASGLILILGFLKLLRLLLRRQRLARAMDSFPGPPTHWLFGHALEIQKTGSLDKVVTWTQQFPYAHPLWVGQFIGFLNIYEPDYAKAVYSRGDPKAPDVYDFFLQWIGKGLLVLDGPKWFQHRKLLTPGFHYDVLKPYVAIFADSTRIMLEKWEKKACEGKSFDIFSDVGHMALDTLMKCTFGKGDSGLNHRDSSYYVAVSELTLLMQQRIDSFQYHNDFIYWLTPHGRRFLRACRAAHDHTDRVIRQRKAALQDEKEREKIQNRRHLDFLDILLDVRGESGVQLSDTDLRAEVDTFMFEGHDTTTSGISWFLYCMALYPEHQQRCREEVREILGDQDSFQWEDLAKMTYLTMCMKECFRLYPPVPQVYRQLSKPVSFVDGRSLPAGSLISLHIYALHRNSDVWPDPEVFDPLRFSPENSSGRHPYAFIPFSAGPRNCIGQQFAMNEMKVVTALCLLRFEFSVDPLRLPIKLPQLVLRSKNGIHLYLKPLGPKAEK
Sequence of CYP2C9 (P11712 whole entry): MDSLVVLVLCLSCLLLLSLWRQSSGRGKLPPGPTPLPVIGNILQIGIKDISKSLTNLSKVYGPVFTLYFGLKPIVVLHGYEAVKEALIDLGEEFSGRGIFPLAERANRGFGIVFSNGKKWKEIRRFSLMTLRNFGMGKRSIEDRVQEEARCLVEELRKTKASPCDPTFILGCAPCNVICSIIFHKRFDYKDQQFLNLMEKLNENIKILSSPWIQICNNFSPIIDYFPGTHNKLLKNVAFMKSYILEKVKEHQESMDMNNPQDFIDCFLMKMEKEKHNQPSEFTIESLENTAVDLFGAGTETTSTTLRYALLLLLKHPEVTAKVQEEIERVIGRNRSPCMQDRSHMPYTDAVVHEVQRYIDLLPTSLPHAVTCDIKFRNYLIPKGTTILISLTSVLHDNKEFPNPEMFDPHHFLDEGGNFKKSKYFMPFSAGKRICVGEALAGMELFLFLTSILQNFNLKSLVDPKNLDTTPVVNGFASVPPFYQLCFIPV
Sequence of CYP2E1 (P05181 whole entry): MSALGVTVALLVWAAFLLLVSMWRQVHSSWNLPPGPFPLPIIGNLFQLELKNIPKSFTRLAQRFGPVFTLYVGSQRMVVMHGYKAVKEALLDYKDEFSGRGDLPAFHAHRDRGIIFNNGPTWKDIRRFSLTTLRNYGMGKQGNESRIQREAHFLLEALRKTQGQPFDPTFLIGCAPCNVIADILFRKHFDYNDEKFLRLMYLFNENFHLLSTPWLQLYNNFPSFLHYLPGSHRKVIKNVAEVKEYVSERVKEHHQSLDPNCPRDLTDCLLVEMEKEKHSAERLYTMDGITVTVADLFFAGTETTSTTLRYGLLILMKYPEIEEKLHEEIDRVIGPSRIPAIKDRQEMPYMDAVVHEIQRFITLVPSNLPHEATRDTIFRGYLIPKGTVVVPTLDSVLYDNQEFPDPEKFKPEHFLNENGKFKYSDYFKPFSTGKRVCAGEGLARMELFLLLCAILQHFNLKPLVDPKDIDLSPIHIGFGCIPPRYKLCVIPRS
T1 sequence (P00183 2-415): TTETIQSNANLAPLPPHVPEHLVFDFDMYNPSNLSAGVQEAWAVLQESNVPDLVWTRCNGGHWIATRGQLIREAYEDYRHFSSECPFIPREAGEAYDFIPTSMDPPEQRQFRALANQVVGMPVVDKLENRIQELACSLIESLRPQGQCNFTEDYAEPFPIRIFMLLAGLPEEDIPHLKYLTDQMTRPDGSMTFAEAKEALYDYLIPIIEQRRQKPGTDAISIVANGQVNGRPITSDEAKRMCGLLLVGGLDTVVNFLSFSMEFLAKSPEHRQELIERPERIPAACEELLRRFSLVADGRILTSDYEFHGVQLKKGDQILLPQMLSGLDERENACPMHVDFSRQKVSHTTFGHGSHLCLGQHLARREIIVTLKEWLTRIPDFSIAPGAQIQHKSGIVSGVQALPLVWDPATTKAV

COc1ccc(C)cc1 [p-Methylanisole, p-methylanisole]
Intramolecular KIE (kH/kD) [1]: 4.44
Intermolecular KIE ([2]; CYP2B6 (Table 15)): 7.60
Intramolecular KIE ([2]; CYP2B6 (Table 15)): 4.58
δΔG^† ([2]; CYP2B6, benzylic oxidation vs O-dealkylation): 0.86 kcal/mol
Benzylic/O-Dealkylation, Mean [3]: 10.60 (5.85)
Intermolecular KIE, Mean [3]: 4.59
Intramolecular KIE, Mean [3]: 4.20

COc1ccccc1C [o-Methylanisole, o-methylanisole]
Experimental Ratio [4]: 1.76
selectivity ratio [5, 12]: 0.31
selectivity ratio [5, 13]: 1.2
selectivity ratio [6, 12]: 2
selectivity ratio [6, 13]: 0.52
selectivity ratio [7]: 1
selectivity ratio [8, 12]: 1.6
selectivity ratio [8, 13]: 2.5
selectivity ratio [9, 12]: 0.48
selectivity ratio [9, 13]: 1.6
selectivity ratio [10, 12]: 22
selectivity ratio [10, 13]: 0.7
selectivity ratio at 20 min, […] [11]: 1.6 to 22
